Assay results: article PMC10584882 (Communications Biology, 2023)
Several values for one entry are separate records, joined by “and”; a condition that tells them apart may be missing. Equal entries are not always repeated. Entries after “also recorded” stand apart in the source; their conditions may differ.

Experiments:
[1] = tested on: SARS-CoV-2-GFP; parameters: method as in PMID 33811162; conditions: VERO E6 cell-based SARS-CoV-2 infection assays; cited from earlier work
[2] = tested on: SARS-CoV-2; test: Anti-viral experiment with Golden Syrian hamsters: viral load in lungs and trachea; format: in vivo, Golden Syrian hamsters (Mesocricetus auratus); conditions: 1 mg/kg s.c. daily from day 1; for RNA - lung / RNA - trachea / titer - lung / titer - trachea: individual hamsters; for viral load in trachea versus untreated group (in words): TCID50
[3] = tested on: SARS-CoV-2; test: Anti-viral experiment with Golden Syrian hamsters: histopathology scores; format: in vivo, Golden Syrian hamsters (Mesocricetus auratus); conditions: for trachea, epithelial damage (score) / bronchi, epithelial damage (score) / pulmonary parenchyma damage (score) / submucosal damage (score) / tissue repair (score) / vascular damage (score): 1 mg/kg s.c., individual hamsters; for trachea, epithelial damage (score): 0 normal, 1 mild, 2 moderate, 3 severe tracheitis; for bronchi, epithelial damage (score) / pulmonary parenchyma damage (score) / submucosal damage (score) / tissue repair (score) / vascular damage (score): sum of five lung lobes, maximum 15
[4] = S-Calpeptin toxicity experiment in Golden Syrian hamsters (weight, blood cell count, histopathology); format: in vivo, Golden Syrian hamsters (Mesocricetus auratus); parameters: leukocytes / neutrophils / lymphocytes / monocytes: unit not given here; conditions: for leukocytes / lymphocytes / monocytes / neutrophils: blood cell count
[5] = 1 mg/kg S-Calpeptin, individual animals 1-3, 1 mg/kg
[6] = 2 mg/kg S-Calpeptin, individual animals 7-9, 2 mg/kg
[7] = 3 mg/kg S-Calpeptin, individual animals 10-12, 3 mg/kg

For CCCC[C@@H](C=O)NC(=O)[C@H](CC(C)C)NC(=O)OCc1ccccc1 [Calpeptin, reference compound], the “concentration giving high suppression of virus replication” value [1] is given as “below 100 nM”.
In the case of CCCC[C@H](NC(=O)[C@H](CC(C)C)NC(=O)OCc1ccccc1)C(O)S(=O)(=O)[O-].[Na+] (stereo partly drawn) [S-Calpeptin], the RNA - lung ([2]; day 3 p.i., 1 mg/kg) is reported as 2.194 SARS-CoV-2 RNA copies/β actin RNA copies and 2.076 SARS-CoV-2 RNA copies/β actin RNA copies and 2.135 SARS-CoV-2 RNA copies/β actin RNA copies and 5.784 SARS-CoV-2 RNA copies/β actin RNA copies and 2.611 SARS-CoV-2 RNA copies/β actin RNA copies, the RNA - trachea ([2]; day 3 p.i., 1 mg/kg) is reported as 2.441 SARS-CoV-2 RNA copies/β actin RNA copies and 1.131 SARS-CoV-2 RNA copies/β actin RNA copies and 3.086 SARS-CoV-2 RNA copies/β actin RNA copies and 1.769 SARS-CoV-2 RNA copies/β actin RNA copies and 1.594 SARS-CoV-2 RNA copies/β actin RNA copies and the titer - lung ([2]; day 3 p.i., 1 mg/kg) is reported as 10.089 log TCID50/g and 9.011 log TCID50/g and 10.277 log TCID50/g and 9.5756 log TCID50/g and 8.981 log TCID50/g. For the same molecule, the titer - trachea ([2]; day 3 p.i., 1 mg/kg) was 5.2099 log TCID50/g and 3.791 log TCID50/g and 5.949 log TCID50/g and 7.023 log TCID50/g and 7.625 log TCID50/g, the RNA - lung ([2]; day 5 p.i., 1 mg/kg) was 2.363 SARS-CoV-2 RNA copies/β actin RNA copies and 1.994 SARS-CoV-2 RNA copies/β actin RNA copies and 2.073 SARS-CoV-2 RNA copies/β actin RNA copies and 2.178 SARS-CoV-2 RNA copies/β actin RNA copies and 1.943 SARS-CoV-2 RNA copies/β actin RNA copies and the RNA - trachea ([2]; day 5 p.i., 1 mg/kg) was 1.729 SARS-CoV-2 RNA copies/β actin RNA copies and 2.0935 SARS-CoV-2 RNA copies/β actin RNA copies and 2.166 SARS-CoV-2 RNA copies/β actin RNA copies and 1.097 SARS-CoV-2 RNA copies/β actin RNA copies and 1.597 SARS-CoV-2 RNA copies/β actin RNA copies. For the same molecule, the titer - lung ([2]; day 5 p.i., 1 mg/kg) was 7.002 log TCID50/g and 7.059 log TCID50/g and 6.976 log TCID50/g and 7.092 log TCID50/g and 6.453 log TCID50/g, the titer - trachea ([2]; day 5 p.i., 1 mg/kg) was 0 log TCID50/g and 2.787 log TCID50/g and the titer - trachea ([2]; day 7 p.i.) was 0 log TCID50/g. For the same molecule, the RNA - lung ([2]; day 7 p.i., 1 mg/kg) was 0.6096 SARS-CoV-2 RNA copies/β actin RNA copies and 0.8217 SARS-CoV-2 RNA copies/β actin RNA copies and 0.4837 SARS-CoV-2 RNA copies/β actin RNA copies and 0.3749 SARS-CoV-2 RNA copies/β actin RNA copies and 1.469 SARS-CoV-2 RNA copies/β actin RNA copies, the RNA - trachea ([2]; day 7 p.i., 1 mg/kg) was 0.3702 SARS-CoV-2 RNA copies/β actin RNA copies and -0.0169 SARS-CoV-2 RNA copies/β actin RNA copies and -0.6383 SARS-CoV-2 RNA copies/β actin RNA copies and 0.1661 SARS-CoV-2 RNA copies/β actin RNA copies and 0.09095 SARS-CoV-2 RNA copies/β actin RNA copies and the titer - lung ([2]; day 7 p.i., 1 mg/kg) was 0 log TCID50/g and 1.7736 log TCID50/g. The “viral load in lungs versus untreated group (in words)” value ([2]; hamsters, day 5 p.i., 1 mg/kg) was “lower SARS-CoV-2 titers in the treated group compared to the untreated group; also recorded: lower viral loads in their trachea and lungs”, the “viral load in trachea versus untreated group (in words)” value ([2]; hamsters, day 5 p.i., 1 mg/kg) was “statistically significant difference on TCID50 viral load in trachea; also recorded: reduces viral load in trachea; also recorded: significant reduction of the viral load in trachea on day 5; also recorded: the decrease was only statistically significant in the trachea” and the “viral load in trachea versus untreated group (in words)” value ([2]; hamsters, day 5 p.i., listed as sulfonated Calpeptin, 1 mg/kg) was “reduces the viral load in the trachea”. The “trachea, epithelial damage (score)” value ([3]; day 3 p.i., 1 mg/kg) was 0 and 1, the “bronchi, epithelial damage (score)” value ([3]; day 3 p.i., 1 mg/kg) was 6 and 3 and 1 and 4 and the “pulmonary parenchyma damage (score)” value ([3]; day 3 p.i., 1 mg/kg) was 7 and 4 and 5 and 8. The “submucosal damage (score)” value ([3]; day 3 p.i., 1 mg/kg) was 7 and 2 and 1 and 5, the “tissue repair (score)” value ([3]; day 3 p.i., 1 mg/kg) was 7 and 6 and 2 and 4 and the “vascular damage (score)” value ([3]; day 3 p.i., 1 mg/kg) was 7 and 8 and 3 and 9. The “trachea, epithelial damage (score)” value ([3]; day 5 p.i., 1 mg/kg) was 0 and 1 and 2, the “bronchi, epithelial damage (score)” value ([3]; day 5 p.i.) was 2 and the “pulmonary parenchyma damage (score)” value ([3]; day 5 p.i., 1 mg/kg) was 7 and 10 and 9. The “submucosal damage (score)” value ([3]; day 5 p.i., 1 mg/kg) was 8 and 11 and 9 and 10, the “tissue repair (score)” value ([3]; day 5 p.i., 1 mg/kg) was 6 and 8 and 9 and 10 and the “vascular damage (score)” value ([3]; day 5 p.i., 1 mg/kg) was 10 and 9 and 11 and 13. For the same molecule, the “trachea, epithelial damage (score)” value ([3]; day 7 p.i., 1 mg/kg) was 0 and 1, the “bronchi, epithelial damage (score)” value ([3]; day 7 p.i., 1 mg/kg) was 2 and 3 and 1 and the “pulmonary parenchyma damage (score)” value ([3]; day 7 p.i., 1 mg/kg) was 8 and 7 and 10. For the same molecule, the “submucosal damage (score)” value ([3]; day 7 p.i., 1 mg/kg) was 10 and 11 and 14, the “tissue repair (score)” value ([3]; day 7 p.i., 1 mg/kg) was 15 and 14 and the “vascular damage (score)” value ([3]; day 7 p.i., 1 mg/kg) was 7 and 5 and 9. For the same molecule, the “histopathology lesion scores versus untreated (in words)” value ([3]; infected hamsters, 1 mg/kg s.c. daily) was “no statistically significant differences in lesion scores”, the “lung vascular damage scores versus untreated (in words)” value ([3]; infected hamsters, 1 mg/kg s.c. daily, days 5 and 7 p.i.) was “lower scores for vascular damage compared to the untreated group on days 5 and 7 p.i., these results were not statistically significant” and the “body weight, summarized data, average” value ([4]; 1 mg/kg S-Calpeptin, day 0, relative to day 0) was 100%. For the same molecule, the “body weight, summarized data, average” value ([4]; 1 mg/kg S-Calpeptin, day 1, relative to day 0) was 100.862%, the “body weight, individual data” value ([4]; 1 mg/kg S-Calpeptin, day 2, individual animals A1-A3) was 124 g and the “body weight, summarized data, average” value ([4]; 1 mg/kg S-Calpeptin, day 2, relative to day 0) was 100.893%. For the same molecule, the “body weight, summarized data, average” value ([4]; 1 mg/kg S-Calpeptin, day 3, relative to day 0) was 100.862%, the “body weight, summarized data, average” value ([4]; 1 mg/kg S-Calpeptin, day 4, relative to day 0) was 101.724% and the “body weight, summarized data, average” value ([4]; 1 mg/kg S-Calpeptin, day 5, relative to day 0) was 102.852%. For the same molecule, the “body weight, summarized data, average” value ([4]; 1 mg/kg S-Calpeptin, day 6, relative to day 0) was 102.288%, the “body weight, summarized data, average” value ([4]; 2 mg/kg S-Calpeptin, day 0, relative to day 0) was 100% and the “body weight, summarized data, average” value ([4]; 2 mg/kg S-Calpeptin, day 1, relative to day 0) was 100.285%. For the same molecule, the “body weight, summarized data, average” value ([4]; 2 mg/kg S-Calpeptin, day 2, relative to day 0) was 100.287%, the “body weight, individual data” value ([4]; 2 mg/kg S-Calpeptin, day 3, individual animals A7-A9) was 120 g and the “body weight, summarized data, average” value ([4]; 2 mg/kg S-Calpeptin, day 3, relative to day 0) was 101.388%. For the same molecule, the “body weight, summarized data, average” value ([4]; 2 mg/kg S-Calpeptin, day 4, relative to day 0) was 100.836%, the “body weight, summarized data, average” value ([4]; 2 mg/kg S-Calpeptin, day 5, relative to day 0) was 101.368% and the “body weight, individual data” value ([4]; 2 mg/kg S-Calpeptin, day 6, individual animals A7-A9) was 120 g. For the same molecule, the “body weight, summarized data, average” value ([4]; 2 mg/kg S-Calpeptin, day 6, relative to day 0) was 101.919%, the “body weight, individual data” value ([4]; 3 mg/kg S-Calpeptin, day 0, individual animals A10-A12) was 124 g and 135 g and the “body weight, summarized data, average” value ([4]; 3 mg/kg S-Calpeptin, day 0, relative to day 0) was 100%. The “body weight, individual data” value ([4]; 3 mg/kg S-Calpeptin, day 1, individual animals A10-A12) was 124 g and 135 g, the “body weight, summarized data, average” value ([4]; 3 mg/kg S-Calpeptin, day 1, relative to day 0) was 100.275% and the “body weight, individual data” value ([4]; 3 mg/kg S-Calpeptin, day 2, individual animals A10-A12) was 124 g and 135 g. For the same molecule, the “body weight, summarized data, average” value ([4]; 3 mg/kg S-Calpeptin, day 2, relative to day 0) was 100.275%, the “body weight, summarized data, average” value ([4]; 3 mg/kg S-Calpeptin, day 3, relative to day 0) was 101.582% and the “body weight, summarized data, average” value ([4]; 3 mg/kg S-Calpeptin, day 4, relative to day 0) was 102.133%. For the same molecule, the “body weight, summarized data, average” value ([4]; 3 mg/kg S-Calpeptin, day 5, relative to day 0) was 102.402%, the “body weight, summarized data, average” value ([4]; 3 mg/kg S-Calpeptin, day 6, relative to day 0) was 102.671% and the leukocytes [4, 5] was 4150 and 4010 and 4200. The lymphocytes [4, 5] was 2407 and 2366 and 2310, the monocytes [4, 5] was 581 and 521 and 798 and the neutrophils [4, 5] was 1079 and 1083 and 924. For the same molecule, the leukocytes [4, 6] was 1780 and 2200 and 1620, the lymphocytes [4, 6] was 1104 and 748 and 486 and the monocytes [4, 6] was 214 and 352 and 680. The neutrophils [4, 6] was 427 and 1056 and 389, the leukocytes [4, 7] was 3000 and 1360 and 2190 and the lymphocytes [4, 7] was 1860 and 653 and 1270. For the same molecule, the monocytes [4, 7] was 450 and 163 and 350, the neutrophils [4, 7] was 630 and 517 and 569 and the “blood cell count finding (in words)” value ([4]; hamsters, 2 mg/kg or 3 mg/kg s.c. daily, end of seven-days protocol) was “marked leukopenia; also recorded: blood leukopenia”. For the same molecule, the “acute toxicity-related clinical signs or weight loss (in words)” value ([4]; hamsters, 1, 2 or 3 mg/kg s.c. daily) was “no signs of acute toxicity; also recorded: did not display acute toxicity-related clinical signs” and the “side effects (in words)” value ([4]; hamsters, daily dose of 1 mg/kg s.c. over seven days) was “no apparent side effects”.
